# ChEMBL document CHEMBL4261633, “Butenolides from a marine-derived fungus Aspergillus terreus with antitumor activities against pancreatic ductal adenocarcinoma cells” (Bioorg Med Chem, 2018)
# Calls of active or inactive are those of the source. The rule behind the calls is not given here.
# How the values were obtained:
# PANC-1 [1] = assay: Induction of apoptosis in human PANC1 cells assessed as early apoptotic cells at 5 uM after 24 hrs by FITC-Annexin V/propidium iodide staining-based flow cytometric analysis (reference value: 0.5 to 3.2%); format: functional
# PANC-1 [2] = assay: Induction of apoptosis in human PANC1 cells assessed as early apoptotic cells at 10 uM after 24 hrs by FITC-Annexin V/propidium iodide staining-based flow cytometric analysis (reference value: 0.5 to 3.2%); format: functional
# PANC-1 [3] = assay: Cell cycle arrest in human PANC1 cells assessed as accumulation at G2/M phase at 5 uM after 24 hrs by RNAase/propidium iodide staining-based flow cytometric analysis (reference value: 6.83 to 11.82%); format: functional
# PANC-1 [4] = assay: Induction of apoptosis in human PANC1 cells assessed as late apoptotic cells at 25 uM after 24 hrs by FITC-Annexin V/propidium iodide staining-based flow cytometric analysis (reference value: 0.0 to 0.7%); format: functional
# PANC-1 [5] = assay: Induction of apoptosis in human PANC1 cells assessed as early apoptotic cells at 25 uM after 24 hrs by FITC-Annexin V/propidium iodide staining-based flow cytometric analysis (reference value: 0.5 to 3.2%); format: functional
# PANC-1 [6] = assay: Cell cycle arrest in human PANC1 cells assessed as accumulation at G1 phase at 15 uM after 24 hrs by RNAase/propidium iodide staining-based flow cytometric analysis (reference value: 67.93 to 75.87%); format: functional
# PANC-1 [7] = assay: Cell cycle arrest in human PANC1 cells assessed as accumulation at G1 phase at 25 uM after 24 hrs by RNAase/propidium iodide staining-based flow cytometric analysis (reference value: 67.93 to 75.87%); format: functional
# PANC-1 [8] = assay: Induction of apoptosis in human PANC1 cells assessed as viable cells at 10 uM after 24 hrs by FITC-Annexin V/propidium iodide staining-based flow cytometric analysis (reference value: 94.7 to 98.7%); format: functional; settings: PANC-1, 24 h, read-out: Activity
# PANC-1 [9] = assay: Antiproliferative activity against human PANC1 cells after 24 hrs by CCK8 assay; format: functional, cell-based; settings: PANC-1, 24 h
# PANC-1 [10] = assay: Cell cycle arrest in human PANC1 cells assessed as accumulation at G2/M phase at 25 uM after 24 hrs by RNAase/propidium iodide staining-based flow cytometric analysis (reference value: 6.83 to 11.82%); format: functional
# PANC-1 [11] = assay: Induction of apoptosis in human PANC1 cells assessed as necrotic cells at 25 uM after 24 hrs by FITC-Annexin V/propidium iodide staining-based flow cytometric analysis (reference value: 0.7 to 1.4%); format: functional
# PANC-1 [12] = assay: Induction of apoptosis in human PANC1 cells assessed as nuclear chromatin condensation at 10 uM after 24 hrs by Hoechst 33258 staining based fluorescence microscopic analysis; format: functional, cell-based
# PANC-1 [13] = assay: Cell cycle arrest in human PANC1 cells assessed as accumulation at S phase at 5 uM after 24 hrs by RNAase/propidium iodide staining-based flow cytometric analysis (reference value: 11.66 to 19.02%); format: functional
# HCC1806 = assay: Antiproliferative activity against human HCC1806 cells after 24 hrs by CCK8 assay; format: functional, cell-based; settings: HCC1806, 24 h
# PANC-1 [14] = assay: Induction of apoptosis in human PANC1 cells assessed as late apoptotic cells at 10 uM after 24 hrs by FITC-Annexin V/propidium iodide staining-based flow cytometric analysis (reference value: 0.0 to 0.7%); format: functional
# PANC-1 [15] = assay: Induction of apoptosis in human PANC1 cells assessed as necrotic cells at 5 uM after 24 hrs by FITC-Annexin V/propidium iodide staining-based flow cytometric analysis (reference value: 0.7 to 1.4%); format: functional
# PANC-1 [16] = assay: Induction of apoptosis in human PANC1 cells assessed as late apoptotic cells at 5 uM after 24 hrs by FITC-Annexin V/propidium iodide staining-based flow cytometric analysis (reference value: 0.0 to 0.7%); format: functional
# PANC-1 [17] = assay: Induction of apoptosis in human PANC1 cells assessed as necrotic cells at 10 uM after 24 hrs by FITC-Annexin V/propidium iodide staining-based flow cytometric analysis (reference value: 0.7 to 1.4%); format: functional
# PANC-1 [18] = assay: Induction of apoptosis in human PANC1 cells assessed as nuclear fragmentation at 25 uM after 24 hrs by Hoechst 33258 staining based fluorescence microscopic analysis; format: functional, cell-based
# PANC-1 [19] = assay: Cell cycle arrest in human PANC1 cells assessed as accumulation at G1 phase at 10 uM after 24 hrs by RNAase/propidium iodide staining-based flow cytometric analysis (reference value: 67.93 to 75.87%); format: functional
# HT-29 = assay: Antiproliferative activity against human HT-29 cells after 24 hrs by CCK8 assay; format: functional, cell-based; settings: HT-29, 24 h
# PANC-1 [20] = assay: Induction of apoptosis in human PANC1 cells assessed as early apoptotic cells at 15 uM after 24 hrs by FITC-Annexin V/propidium iodide staining-based flow cytometric analysis (reference value: 0.5 to 3.2%); format: functional
# BEAS-2B = assay: Antiproliferative activity against human BEAS2B cells after 24 hrs by CCK8 assay; format: functional, cell-based
# PANC-1 [21] = assay: Induction of apoptosis in human PANC1 cells assessed as viable cells at 5 uM after 24 hrs by FITC-Annexin V/propidium iodide staining-based flow cytometric analysis (reference value: 94.7 to 98.7%); format: functional; settings: PANC-1, 24 h, read-out: Activity
# PANC-1 [22] = assay: Induction of apoptosis in human PANC1 cells after 24 hrs by FITC-Annexin V/propidium iodide staining-based flow cytometric analysis; format: functional, cell-based
# PANC-1 [23] = assay: Induction of apoptosis in human PANC1 cells assessed as viable cells at 25 uM after 24 hrs by FITC-Annexin V/propidium iodide staining-based flow cytometric analysis (reference value: 94.7 to 98.7%); format: functional; settings: PANC-1, 24 h, read-out: Activity
# PANC-1 [24] = assay: Cell cycle arrest in human PANC1 cells assessed as accumulation at G1 phase at 5 uM after 24 hrs by RNAase/propidium iodide staining-based flow cytometric analysis (reference value: 67.93 to 75.87%); format: functional
# PANC-1 [25] = assay: Induction of apoptosis in human PANC1 cells assessed as nuclear fragmentation at 10 uM after 24 hrs by Hoechst 33258 staining based fluorescence microscopic analysis; format: functional, cell-based
# PANC-1 [26] = assay: Cell cycle arrest in human PANC1 cells assessed as accumulation at S phase at 25 uM after 24 hrs by RNAase/propidium iodide staining-based flow cytometric analysis (reference value: 11.66 to 19.02%); format: functional
# PANC-1 [27] = assay: Induction of apoptosis in human PANC1 cells assessed as necrotic cells at 15 uM after 24 hrs by FITC-Annexin V/propidium iodide staining-based flow cytometric analysis (reference value: 0.7 to 1.4%); format: functional
# PANC-1 [28] = assay: Cell cycle arrest in human PANC1 cells assessed as accumulation at S phase at 10 uM after 24 hrs by RNAase/propidium iodide staining-based flow cytometric analysis (reference value: 11.66 to 19.02%); format: functional
# PANC-1 [29] = assay: Cell cycle arrest in human PANC1 cells assessed as accumulation at S phase at 15 uM after 24 hrs by RNAase/propidium iodide staining-based flow cytometric analysis (reference value: 11.66 to 19.02%); format: functional
# PANC-1 [30] = assay: Induction of apoptosis in human PANC1 cells assessed as nuclear chromatin condensation at 25 uM after 24 hrs by Hoechst 33258 staining based fluorescence microscopic analysis; format: functional, cell-based
# PANC-1 [31] = assay: Induction of apoptosis in human PANC1 cells assessed as viable cells at 15 uM after 24 hrs by FITC-Annexin V/propidium iodide staining-based flow cytometric analysis (reference value: 94.7 to 98.7%); format: functional; settings: PANC-1, 24 h, read-out: Activity
# PANC-1 [32] = assay: Cell cycle arrest in human PANC1 cells assessed as accumulation at G2/M phase at 15 uM after 24 hrs by RNAase/propidium iodide staining-based flow cytometric analysis (reference value: 6.83 to 11.82%); format: functional
# PANC-1 [33] = assay: Induction of apoptosis in human PANC1 cells assessed as late apoptotic cells at 15 uM after 24 hrs by FITC-Annexin V/propidium iodide staining-based flow cytometric analysis (reference value: 0.0 to 0.7%); format: functional
# PANC-1 [34] = assay: Induction of apoptosis in human PANC1 cells assessed as nuclear shrinkage at 10 uM after 24 hrs by Hoechst 33258 staining based fluorescence microscopic analysis; format: functional, cell-based
# HepG2 = assay: Antiproliferative activity against human HepG2 cells after 24 hrs by CCK8 assay; format: functional, cell-based; settings: HepG2, 24 h
# PANC-1 [35] = assay: Cell cycle arrest in human PANC1 cells assessed as accumulation at G2/M phase at 10 uM after 24 hrs by RNAase/propidium iodide staining-based flow cytometric analysis (reference value: 6.83 to 11.82%); format: functional
# PANC-1 [36] = assay: Induction of apoptosis in human PANC1 cells assessed as nuclear shrinkage at 25 uM after 24 hrs by Hoechst 33258 staining based fluorescence microscopic analysis; format: functional, cell-based
structure (smiles),measurement,setting,value
COC(=O)[C@]1(Cc2ccc(O)c(CC=C(C)C)c2)OC(=O)C(O)=C1c1ccccc1,Activity,PANC-1 [1],6.8%
same,Activity,PANC-1 [2],13.6%
same,Activity,PANC-1 [3],7.77%
same,Activity,PANC-1 [4],3%
same,Activity,PANC-1 [5],21.1%
same,Activity,PANC-1 [6],52.41%
same,Activity,PANC-1 [7],43.95%
same,viability at 10 µM,PANC-1 [8],83.9%
same,IC50,PANC-1 [9],9.4 µM
same,Activity,PANC-1 [10],10.63%
same,Activity,PANC-1 [11],2.3%
same,Activity,PANC-1 [12],Active
same,Activity,PANC-1 [13],10.92%
same,IC50,HCC1806,18.7 µM
same,Activity,PANC-1 [14],1.4%
same,Activity,PANC-1 [15],1.3%
same,Activity,PANC-1 [16],0.8%
same,Activity,PANC-1 [17],1.2%
same,Activity,PANC-1 [18],Active
same,Activity,PANC-1 [19],56.57%
same,IC50,HT-29,> 20 µM
same,Activity,PANC-1 [20],14.9%
same,IC50,BEAS-2B,> 20 µM
same,viability at 5 µM,PANC-1 [21],91.1%
same,Activity,PANC-1 [22],Dose-dependent effect
same,viability at 25 µM,PANC-1 [23],73.6%
same,Activity,PANC-1 [24],72.84%
same,Activity,PANC-1 [25],Active
same,Activity,PANC-1 [26],42.63%
same,Activity,PANC-1 [27],0.9%
same,Activity,PANC-1 [28],31.28%
same,Activity,PANC-1 [29],32.92%
same,Activity,PANC-1 [30],Active
same,viability at 15 µM,PANC-1 [31],83.2%
same,Activity,PANC-1 [32],7.7%
same,Activity,PANC-1 [33],1%
same,Activity,PANC-1 [34],Active
same,IC50,HepG2,12.9 µM
same,Activity,PANC-1 [35],8.14%
same,Activity,PANC-1 [36],Active
